Measurements from patent US6194437A (Warner-Lambert Company, priority 1999, dated 2001).

Key:
[1] = biological target: T1, cloned human GRP-preferring receptor (BB2) (Homo sapiens, UniProt P30550); assay: Receptor binding assay, cloned human GRP-preferring receptor (BB2), [125I][Tyr4]bombesin displacement; details: CHO-K1 cell membranes, 90 minutes incubation
T1 construct: expressed in transfected cells
Description: The compounds of the invention have been evaluated in receptor binding assays which measure the affinity of the novel compounds in a cloned human NMB-preferring receptor (BB1) assay and in a cloned human GRP-preferring receptor (BB2) assay. Protocol for Binding Assays […] For binding experiments, cells were harvested by trypsinization, and stored frozen at -70° C. in Ham's F12 culture medium containing 5% DMSO until required. On the day of use, cells were thawed rapidly, diluted with an excess of culture medium, and centrifuged for 5 minutes at 2000 g. Cells were resuspended in 50 mM Tris-HCl assay buffer (pH 7.4 at 21° C., containing 0.02% BSA, 40 μg/ml bacitracin, 2 μg/mL chymostatin, 4 μg/mL leupeptin, and 2 μM phosphoramidon), counted, and polytronned (setting 5, 10 sec) before centrifuging for 10 minutes at 28,000 g. The final pellet was resuspended in assay buffer to a final cell concentration of 1.5×10^5 /mL. […] Radioactivity bound was determined using a gamma counter.

[2] = biological target: T2, cloned human NMB-preferring receptors expressed in CHO cells (Homo sapiens, UniProt P28336); assay: Measurement of extracellular acidification (CYTOSENSOR) in CHO-NMB cells; assay type: cell-based; details: NMB-preferring receptor (BB1), antagonist 30 minutes prior to agonist, 37° C.
T2 construct: functional calcium (Fura-2) and Cytosensor acidification assays
Description: (§1) The compounds of the invention have been tested in in vitro functional assays using cloned human NMB-preferring receptors expressed in CHO cells.
(§2) Protocols for functional assays:
2. Measurement of extracellular acidification (CYTOSENSOR)
This acidification rate is detected as a change in potential across a silicon light addressable sensor, during periods of media cessation (McConnell, et al., 1992).
CHO-NMB Cells seeded on polycarbonate microporous capsule cups were placed insensor chambers at 37° C. inside the microphysiometer, and maintained by a flow of nonbuffering Ham's F12 nutrient media (growth media without NaHCO3, pH 7.3-7.4) at approximately 120 μL/min. The flow was halted for 22 seconds at the end of each 2 minute repeated cycle, and the rate of acidification (μ volts/sec) measured for 15 seconds during that period.
Agonists were introduced sequentially every 28 to 30 minutes to the perfusing media, 20 seconds before flow-off periods, and removed after two rate measurements via the automatic valve-switch.
The effects of various antagonists were determined after continuous perfusion 30 minutes prior to, and throughout the application of agonists. All agents were applied at the working pH of the media.

[3] = biological target: T2, cloned human NMB-preferring receptors expressed in CHO cells; assay: Measurement of intracellular calcium levels ([Ca2+]i mobilization, Fura-2) in CHO cells; assay type: cell-based; details: NMB-preferring receptor (BB1), read-out: [Ca2+]i Mobilization KE
Description: as §1, §2
1. Measurement of intracellular calcium levels
Culture of Chinese hamster ovary cells
Chinese hamster ovary cells were routinely grown as monolayers in Ham's F12 nutrient mixture supplemented with 10% FBS and […], and maintained at 37° C. under 5% CO2. Cells were passaged every 3 to 4 days. At each passaging, cells were seeded at a density of 3 to 6 million per 175 cm^2 flask. […]
Plated cells were incubated with 2 μM Fura-2-AM for between 45 and 120 minutes at 25° C. to 29° C. […] Single coverslips were then mounted in a chamber on top of an inverted fluorescence microscope and perfused with a Krebs-Hepes assay buffer (composition in mM: NaCl 118, KCl 4.7, MgSO4 1.2, CaCl^2 1.2, KH^2 PO^4 1.2, Hepes 10, glucose 11, pH 7.2 at 37° C.) {332}.
Measurements of [Ca^2+ ]^i in individual cells were made from the fluorescence ratio (excitations […] for Fura-2) using a specially designed filter wheel assembly, CCD camera or photomuliplier tubes, and specially designed suites of software (MAGICAL OR phocal, Applied Imaging, Sunderland, UK) which samples emission following excitation at different wavelengths at regular intervals. […]

[4] = biological target: T3, cloned human NMB-preferring receptor (BB1) (Homo sapiens, UniProt P28336); assay: Receptor binding assay, cloned human NMB-preferring receptor (BB1), [125I][Tyr4]bombesin displacement; details: CHO-K1 cell membranes, 60 minutes incubation
T3 construct: expressed in transfected cells
Description: For binding experiments, cells were harvested by trypsinization, and stored frozen at -70° C. in Ham's F12 culture medium containing 5% DMSO until required. On the day of use, cells were thawed rapidly, diluted with an excess of culture medium, and centrifuged for 5 minutes at 2000 g. Cells were resuspended in 50 mM Tris-HCl assay buffer (pH 7.4 at 21° C., containing 0.02% BSA, 40 μg/ml bacitracin, 2 μg/mL chymostatin, 4 μg/mL leupeptin, and 2 μM phosphoramidon), counted, and polytronned (setting 5, 10 sec) before centrifuging for 10 minutes at 28,000 g. The final pellet was resuspended in assay buffer to a final cell concentration of 1.5×10^5 /mL. […] Radioactivity bound was determined using a gamma counter.

T2 sequence (P28336 whole entry): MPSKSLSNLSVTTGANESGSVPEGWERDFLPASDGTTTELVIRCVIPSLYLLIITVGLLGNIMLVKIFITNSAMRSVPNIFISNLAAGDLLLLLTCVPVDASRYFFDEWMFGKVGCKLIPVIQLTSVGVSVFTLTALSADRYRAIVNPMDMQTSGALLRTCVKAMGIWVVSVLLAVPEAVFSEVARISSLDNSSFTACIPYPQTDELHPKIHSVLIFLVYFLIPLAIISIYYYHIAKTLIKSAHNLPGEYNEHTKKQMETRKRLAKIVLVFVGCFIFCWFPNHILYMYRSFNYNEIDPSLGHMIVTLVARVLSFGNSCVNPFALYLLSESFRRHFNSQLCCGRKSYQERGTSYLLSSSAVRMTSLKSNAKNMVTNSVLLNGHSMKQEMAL
T3 sequence (P28336 whole entry): as above
T1 sequence (P30550 whole entry): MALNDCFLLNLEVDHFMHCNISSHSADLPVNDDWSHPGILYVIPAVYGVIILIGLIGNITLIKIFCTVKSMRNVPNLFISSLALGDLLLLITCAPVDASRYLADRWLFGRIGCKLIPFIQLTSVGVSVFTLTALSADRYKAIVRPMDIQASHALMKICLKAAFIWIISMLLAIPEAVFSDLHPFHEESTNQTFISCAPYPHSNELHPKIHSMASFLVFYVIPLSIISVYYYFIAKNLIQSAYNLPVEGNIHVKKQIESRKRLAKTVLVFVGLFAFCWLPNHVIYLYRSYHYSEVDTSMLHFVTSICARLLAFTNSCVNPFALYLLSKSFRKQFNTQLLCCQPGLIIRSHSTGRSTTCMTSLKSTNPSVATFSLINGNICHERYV

| Compound | Ki [1] [nM] | Acidification Response appKB [2] | Kb [3] [nM] | Ki [4] [nM] |
| --- | --- | --- | --- | --- |
| C[C@@](Cc1c[nH]c2ccccc12)(NC(=O)Nc1ccc([N+](=O)[O-])cc1)C(=O)NCC1(c2ccccn2)CCCCC1 [Example 14] | 19 | 1.0 | 1.2 | 0.15 |
| CC(C)c1cccc(C(C)C)c1NC(=O)N[C@@](C)(Cc1c[nH]c2ccccc12)C(=O)NCC1(c2ccccn2)CCCCC1 [Example 1, 2-[3-(2,6-Diisopropyl-phenyl)-ureido]-3-(1H-indol-3-yl)-2-methyl-N-(1-pyridin-2-yl-cyclohexylmethyl)-propionamide] | > 10000 | 7.6 | 18 | 5 |
